According to patent US7579356B2, “Thia-tetraazaacenaphthylene kinase inhibitors” (Janssen Pharmaceutica NV, priority 2005, dated 2009):

Tests used:
[1] = test system: N87 cells; assay: In Vivo Models - Inhibition of Tumor Growth, N87; settings: Mus musculus, po, 720 h, 100 mg/kg, oral daily for 30 days, athymic mice; read-out: percent inhibition N87
Method: In Vivo Models—Inhibition of Tumor Growth
The ability of test compounds to inhibit unregulated growth of human tumor cells in vivo was evaluated by implanting human tumor cells into the hindflank of athymic mice, administering a test compound and then quantifying any change in tumor size.
Human epidermoid A431 carcinoma, N87 cells and BT474 cells were implanted subcutaneously into the hindflank of female athymic mice (Charles River) and allowed to grow for 6-10 days. After a measurable tumor was established (as determined by baseline caliper measurement), the animal was administered an oral dose of the test compound daily for a period of 30 days. Tumor size was measured every five days and the degree of inhibition was determined by comparing drug-treated animals to vehicle-treated animals.
Variations of this method are intended to include intraperitoneal injection or intravenous infusion as the route of administration and administration of the test compound either alone or in a combination therapy.
The inhibition of tumor growth values are shown in Table 8 at various test concentrations, as indicated. For compounds with multiple values at one test concentration, each value represents a separate assay result.

[2] = target: T1, HER-2 (Homo sapiens, UniProt P04626); assay: HER-2 Kinase Assay; assay type: biochemical; settings: for IC50: value in parentheses; for inhibition at 1 µM: test concentration of 1 μM
T1 construct: His6 with thrombin site (N); purchased Proqinase (Freiburg, Germany)
Procedure, shortened: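 Read-out was scintillation counting of 33P incorporated into biotinylated polyGluTyr captured on streptavidin plates. Reactions ran 1 h at 30 °C with GST-fused HER-2 residues 679–1255, 1 μM ATP, Mn2+ and Mg2+ at pH 7.5; data given as percent inhibition at 1 μM, with IC50 where determined.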

[3] = target: T2, EGFR (Homo sapiens, UniProt P00533); assay: EGFR Kinase Assay; assay type: biochemical; settings: for inhibition at 2 µM: test concentration of 2 μM, compounds without an IC50, read-out: EGFR inhibition in percent; for IC50: GST-EGFR, ATP 5 μM
T2 construct: The intracellular portion of EGFR started at nucleotide 2189 (corresponding to amino acid 667) and ended at the termination codon; made in house; host or cells: Sf9 insect cells (baculovirus)
Procedure, shortened: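 Potency came from triplicate 16-point half-log titrations starting at 200 uM, with IC50 fitted from % inhibition against log concentration, or % inhibition at 2 μM otherwise. Reaction: Sf9-made GST–EGFR cytoplasmic region (aa 667 onward), biotin-polyGluTyr, 5 μM ATP with 33P tracer, pH 8.0 Tris/Mg/vanadate/DTT, 30 °C for 1 h; captured on streptavidin Flashplates and counted.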

[4] = target: T3, Lyn kinase (human) (Homo sapiens, UniProt P07948); assay: Lyn Kinase Assay; assay type: biochemical; settings: test concentration of 2 μM
T3 construct: purchased Upstate Biotechnology, Lake Placid, N.Y
Procedure, shortened: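 Radiometric filter-binding assay with recombinant human Lyn, poly(Glu,Tyr) substrate (0.1 mg/mL final), 5 μM ATP plus γ-33P-ATP in MOPS pH 7.5/Mg acetate buffer; 40 min at 30 °C, stopped with phosphoric acid, counted by scintillation. Reported as percent inhibition at 2 μM, with IC50 (μM) where determined.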

[5] = target: T4, c-Src kinase (human) (Homo sapiens, UniProt P12931); assay: c-Src Kinase Assay; assay type: biochemical; settings: test concentration of 2 μM; multiple values are separate assay results
T4 construct: purchased Upstate Biotechnology, Lake Placid, N.Y
Procedure, shortened: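 Inhibition was read as 33P incorporation, counted on P30 filtermats, after a 40 min, 30° C reaction. Human c-Src acted on 100 μM Cdc2 peptide with 5 μM ATP (final), pH 7.0 MOPS/MgCl2. Values are percent inhibition at 2 μM compound, or IC50 where determined.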

T1 sequence (P04626 679-1255): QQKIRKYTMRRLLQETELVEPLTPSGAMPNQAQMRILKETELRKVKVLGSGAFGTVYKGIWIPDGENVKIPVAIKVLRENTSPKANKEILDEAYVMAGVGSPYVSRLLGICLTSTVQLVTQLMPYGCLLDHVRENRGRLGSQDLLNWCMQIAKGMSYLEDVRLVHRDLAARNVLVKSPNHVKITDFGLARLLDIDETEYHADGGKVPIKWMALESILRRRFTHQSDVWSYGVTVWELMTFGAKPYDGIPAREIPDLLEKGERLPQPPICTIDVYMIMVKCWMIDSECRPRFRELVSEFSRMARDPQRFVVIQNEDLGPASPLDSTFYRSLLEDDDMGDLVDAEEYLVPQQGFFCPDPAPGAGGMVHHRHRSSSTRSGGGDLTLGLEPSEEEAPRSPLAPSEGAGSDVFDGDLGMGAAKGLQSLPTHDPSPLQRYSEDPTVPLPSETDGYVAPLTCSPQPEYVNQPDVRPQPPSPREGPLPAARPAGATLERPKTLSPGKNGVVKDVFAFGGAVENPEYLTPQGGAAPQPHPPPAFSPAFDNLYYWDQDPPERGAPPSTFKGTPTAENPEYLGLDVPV
T4 sequence (P12931 whole entry): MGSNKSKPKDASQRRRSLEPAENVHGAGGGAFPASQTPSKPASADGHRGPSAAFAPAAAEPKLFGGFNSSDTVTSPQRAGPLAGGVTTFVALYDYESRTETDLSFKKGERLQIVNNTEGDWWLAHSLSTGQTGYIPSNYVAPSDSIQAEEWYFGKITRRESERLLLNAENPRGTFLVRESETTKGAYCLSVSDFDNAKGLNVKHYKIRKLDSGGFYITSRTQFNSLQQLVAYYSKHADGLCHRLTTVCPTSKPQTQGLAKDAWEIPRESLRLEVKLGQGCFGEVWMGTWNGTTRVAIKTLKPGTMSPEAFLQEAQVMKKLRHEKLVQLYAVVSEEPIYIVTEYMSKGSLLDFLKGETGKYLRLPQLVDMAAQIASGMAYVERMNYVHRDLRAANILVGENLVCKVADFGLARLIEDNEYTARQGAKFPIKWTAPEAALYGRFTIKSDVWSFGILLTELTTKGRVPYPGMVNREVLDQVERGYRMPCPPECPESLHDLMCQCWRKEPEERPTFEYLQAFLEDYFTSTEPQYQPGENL
T3 sequence (P07948 whole entry): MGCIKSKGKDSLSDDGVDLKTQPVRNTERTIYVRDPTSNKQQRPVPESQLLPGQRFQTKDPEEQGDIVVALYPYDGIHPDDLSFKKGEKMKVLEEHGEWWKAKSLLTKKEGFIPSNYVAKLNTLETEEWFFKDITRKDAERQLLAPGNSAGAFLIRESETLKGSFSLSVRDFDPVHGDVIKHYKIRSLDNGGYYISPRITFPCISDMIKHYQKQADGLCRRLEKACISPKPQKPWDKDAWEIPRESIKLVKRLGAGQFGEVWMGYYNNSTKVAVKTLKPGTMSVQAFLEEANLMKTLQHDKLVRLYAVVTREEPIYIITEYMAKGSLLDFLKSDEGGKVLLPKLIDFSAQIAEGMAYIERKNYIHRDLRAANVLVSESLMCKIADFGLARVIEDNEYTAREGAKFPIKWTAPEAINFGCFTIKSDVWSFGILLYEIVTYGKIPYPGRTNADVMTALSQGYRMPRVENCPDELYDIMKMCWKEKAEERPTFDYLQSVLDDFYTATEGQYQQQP
T2 sequence (P00533 669-1210 limits assumed): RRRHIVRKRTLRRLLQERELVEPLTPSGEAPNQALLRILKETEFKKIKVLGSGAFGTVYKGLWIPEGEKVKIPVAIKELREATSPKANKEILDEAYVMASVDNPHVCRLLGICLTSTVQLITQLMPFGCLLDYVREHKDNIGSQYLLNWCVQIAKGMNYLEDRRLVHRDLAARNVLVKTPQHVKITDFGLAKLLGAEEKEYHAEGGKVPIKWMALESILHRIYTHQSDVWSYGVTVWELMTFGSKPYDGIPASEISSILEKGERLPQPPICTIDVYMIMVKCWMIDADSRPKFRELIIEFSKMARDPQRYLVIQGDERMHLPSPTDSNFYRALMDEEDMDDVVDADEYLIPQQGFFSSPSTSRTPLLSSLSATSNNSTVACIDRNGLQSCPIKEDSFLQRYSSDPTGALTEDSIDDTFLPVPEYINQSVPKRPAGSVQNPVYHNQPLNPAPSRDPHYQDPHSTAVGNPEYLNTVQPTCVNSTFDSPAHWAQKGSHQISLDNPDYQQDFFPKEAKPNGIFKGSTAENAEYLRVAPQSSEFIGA

Structure (SMILES) | IC50 [2] | inhibition at 2 µM [3] | IC50 [3] | inhibition at 2 µM [4] | inhibition at 2 µM [5] | inhibition at 1 µM [2] | inhibition in vivo at 100 mg/kg [1]
Cc1cc(NC(=O)c2sc3ncnc4c3c2NC(=O)N4c2ccc(Oc3ccccc3)cc2)ccc1CN1CCOCC1 [Cpd 232, 4-oxo-5-(4-phenoxy-phenyl)-4,5-dihydro-3H-1-thia-3,5,6,8-tetraaza-acenaphthylene-2-carboxylic acid (3-methyl-4-morpholin-4-ylmethyl-phenyl)-amide] | 28 nM |  | 41 nM |  |  |  | 30.3%
CN(C)c1cc(NC(=O)c2sc3ncnc4c3c2NC(=O)N4c2ccc(Oc3ccccc3)cc2)ccc1CN1CCOCC1 [Cpd 257, 4-oxo-5-(4-phenoxy-phenyl)-4,5-dihydro-3H-1-thia-3,5,6,8-tetraaza-acenaphthylene-2-carboxylic acid (3-dimethylamino-4-morpholin-4-ylmethyl-phenyl)-amide] | 24 nM |  | 96 nM |  |  |  | 71.2%
O=C(O)c1sc2ncnc3c2c1NC(=O)N3c1ccc(Br)cc1F [Cpd 40, 5-(4-bromo-2-fluoro-phenyl)-4-oxo-4,5-dihydro-3H-1-thia-3,5,6,8-tetraaza-acenaphthylene-2-carboxylic acid] |  |  | 7430 nM | -5% | 3% | -19% | 
CN(Cc1ccc(NC(=O)c2sc3ncnc4c3c2NC(=O)N4c2cc(OCc3cccc(F)c3)c(Cl)cc2Cl)cc1)C[C@H]1CCCO1 [Cpd 59, 5-[2,4-dichloro-5-(3-fluoro-benzyloxy)-phenyl]-4-oxo-4,5-dihydro-3H-1-thia-3,5,6,8-tetraaza-acenaphthylene-2-carboxylic acid [4-({methyl-[(2R)-tetrahydro-furan-2-ylmethyl]-amino}-methyl)-phenyl]-amide] |  | 20% |  | 8% | -13% | -18% | 
COc1cc(N2C(=O)Nc3c(C(=O)N4CCCC4)sc4ncnc2c34)c(Cl)cc1Cl [Cpd 46, 5-(2,4-dichloro-5-methoxy-phenyl)-2-(pyrrolidine-1-carbonyl)3H,5H-1-thia-3,5,6,8-tetraaza-acenaphthylen-4-one] |  | 1% |  | 40% | 30% | 0% | 
CN1CCCC(COc2ccc(NC(=O)c3sc4ncnc5c4c3NC(=O)N5c3ccc(Cl)cc3Cl)cc2)C1 (centres unmarked) [Cpd 32, 5-(2,4-dichloro-phenyl)-4-oxo-4,5-dihydro-3H-1-thia-3,5,6,8-tetraaza-acenaphthylene-2-carboxylic acid [4-(1-methyl-piperidin-3-ylmethoxy)-phenyl]-amide] |  |  | 580 nM | 38% | 32% | 33% | 
O=C1Nc2csc3ncnc(c23)N1c1ccc2c(ccn2Cc2cccc(F)c2)c1 [Cpd 152, 5-[1-(3-fluoro-benzyl)-1H-indol-5-yl]-3H,5H-1-thia-3,5,6,8-tetraaza-acenaphthylen-4-one] | 3720 nM |  | 333 nM | 7% | -6% |  | 
O=C(Nc1ccc(CN2CCOCC2)c(O)c1)c1sc2ncnc3c2c1NC(=O)N3c1ccc(Oc2ccccc2)cc1 [Cpd 262, 4-oxo-5-(4-phenoxy-phenyl)-4,5-dihydro-3H-1-thia-3,5,6,8-tetraaza-acenaphthylene-2-carboxylic acid (3-hydroxy-4-morpholin-4-ylmethyl-phenyl)-amide] | 19 nM |  | 35 nM |  |  |  | 70.5%

Second part, led by results:

IC50 [2] | inhibition at 2 µM [3] | IC50 [3] | inhibition at 2 µM [4] | inhibition at 2 µM [5] | inhibition at 1 µM [2] | Structure (SMILES) | inhibition in vivo at 100 mg/kg [1]
523 nM | 83% |  |  |  |  | O=C(Nc1ccc(CN2CCC(F)(F)CC2)cc1)c1sc2ncnc3c2c1NC(=O)N3c1ccc(Oc2ccccc2)cc1 [Cpd 263, 4-oxo-5-(4-phenoxy-phenyl)-4,5-dihydro-3H-1-thia-3,5,6,8-tetraaza-acenaphthylene-2-carboxylic acid [4-(4,4-difluoro-piperidin-1-ylmethyl)-phenyl]-amide] | 18.1%
11 nM |  | 21 nM |  |  |  | NC1CCN(Cc2ccc(NC(=O)c3sc4ncnc5c4c3NC(=O)N5c3ccc(Oc4ccccc4)cc3)cc2)CC1 [Cpd 259, 4-oxo-5-(4-phenoxy-phenyl)-4,5-dihydro-3H-1-thia-3,5,6,8-tetraaza-acenaphthylene-2-carboxylic acid [4-(4-amino-piperidin-1-ylmethyl)-phenyl]-amide] | 46.8%
90 nM |  | 18 nM | 46% | 12% | 85% | O=C(Nc1ccc(CN2CCCCC2)cc1)c1sc2ncnc3c2c1NC(=O)N3c1ccc(Oc2ccccc2)c(Cl)c1 [Cpd 135, 5-(3-chloro-4-phenoxy-phenyl)-4-oxo-4,5-dihydro-3H-1-thia-3,5,6,8-tetraaza-acenaphthylene-2-carboxylic acid (4-piperidin-1-ylmethyl-phenyl)-amide] | 
4230 nM |  | 166 nM | 83% | 50% | 54% | O=C(Nc1ccc(CN2CCCCC2)cc1)c1sc2ncnc3c2c1NC(=O)N3c1ccc(F)cc1Cl [Cpd 145, 5-(2-chloro-4-fluoro-phenyl)-4-oxo-4,5-dihydro-3H-1-thia-3,5,6,8-tetraaza-acenaphthylene-2-carboxylic acid (4-piperidin-1-ylmethyl-phenyl)-amide] | 
87 nM |  | 21 nM | 48% | 49% | 35% | O=C(Nc1ccc(CN2CCOCC2)cc1)c1sc2ncnc3c2c1NC(=O)N3c1ccc(Oc2cccc(F)c2)cc1 [Cpd 134, 5-[4-(3-fluoro-phenoxy)-phenyl]-4-oxo-4,5-dihydro-3H-1-thia-3,5,6,8-tetraaza-acenaphthylene-2-carboxylic acid (4-morpholin-4-ylmethyl-phenyl)-amide] | 
 |  | 1890 nM | 36% | 32% | 14% | COc1cc(N2C(=O)Nc3c(C(=O)Nc4ccc(CN5CCCCC5)cc4)sc4ncnc2c34)c(Cl)cc1Cl [Cpd 33, 5-(2,4-dichloro-5-methoxy-phenyl)-4-oxo-4,5-dihydro-3H-1-thia-3,5,6,8-tetraaza-acenaphthylene-2-carboxylic acid (4-piperidin-1-ylmethyl-phenyl)-amide] | 
222 nM |  | 31 nM | 43% | -41% | 70% | O=C(Nc1ccc(CCN2CCCCC2)cc1)c1sc2ncnc3c2c1NC(=O)N3c1ccc(Oc2ccccc2)c(Cl)c1 [Cpd 136, 5-(3-chloro-4-phenoxy-phenyl)-4-oxo-4,5-dihydro-3H-1-thia-3,5,6,8-tetraaza-acenaphthylene-2-carboxylic acid [4-(2-piperidin-1-yl-ethyl)-phenyl]-amide] | 
